Experimental data: article PMC3422668 (Journal of immunology (Baltimore, Md. : 1950), 2012)
Entries after “also recorded” stand apart in the source; their conditions may differ.

Key:
[1] = test system: mAb 64-3-7; assay type: binding, murine; settings: SPR, BIAcore T100; graded peptide concentrations 11, 33 and 100 μM; Figure 1B
[2] = test system: mAb 64-3-7 Fab; assay: SPR direct binding of soluble 64-3-7 Fab to peptide coupled to a CM5 chip; parameters: species or system murine; settings: similarly coupled peptide surface, data not shown
[3] = biological target: T1, H-2L^d octamer peptide EPQAPWME, residues 46-53 (mouse); assay: crystal structure
T1 chain: EPQAPWME

[4] = biological target: T2, H-2L^d heptamer peptide EPQAPWM (residues 46 to 52) (Mus musculus, H-2Ld); assay: SPR
T2 chain: EPQAPWM

[5] = biological target: T3, H-2L^d 6-mer peptide EPQAPW (Mus musculus, H-2Ld); assay: SPR
T3 chain: EPQAPW

In the case of EPQAPW, the “competition for antibody binding to pL^d35-55-coupled surface” value (“competition for antibody binding” for short) [1] is reported as “intermediate activity”.

EPQAPWM was tested, and the “competition for antibody binding” value [1] was “compete effectively”.

PQAPWM was tested, and the “competition for antibody binding” value [1] was “intermediate activity; also recorded: only binds weakly”.

With QAPWM the “competition for antibody binding” value [1] was “fails to block”.

For RFDSDAENPRYEPRARWMEQE [pK^b35-55], the “direct binding of 64-3-7 Fab to peptide-coupled biosensor surface” value [2] was “no detectable binding”.

“SNVREIKNRWRSTVQKLK [control peptide, reference compound]” was tested, and the “direct binding of 64-3-7 Fab to peptide-coupled biosensor surface” value [2] was “no detectable binding”.

B1: Fab fragment of mAb 64-3-7 (Fab, V domains shown)
VH: EVKLVESEGGLVQPGSSMKLSCTASGFTFSDYYMAWVRQVPEKGLEWVANINYDGSSTYYLDSLKGRFIISRDIAKNILYLQMSSLRCEDTATYYCARLTNGYLDVWGAGTTVTVSS
VL: DVVMTQTPLSLPVSLGDQASISCRSSQSLVHSNGNTYLHWYLQKPGQSPNLLIYKVSNRFSGVPDRFSGSGSGTDFTLKISRVEAEDLGVYFCSQSTHVPTFGGGTKLEIK
B1: binds [3].

B2: mAb 64-3-7 (antibody, V domains shown)
VH: B1 VH
VL: B1 VL
B2: binds [4]; binds [5].
